Measured values: patent US6525001B1, “Substituted pyrimidine and pyridine herbicides” (Mid-American Commercialization Corporation, priority 1997, dated 2003)

How the values were obtained:
Format in all cases: in vivo
[1] = test system: redroot pigweed (Amaranthus retroflexus); assay: Test D; details: PREEMERGENCE
corn (Zea mays) = assay: Test C; set-up: key: 0 was no effect; 100 was complete control; details: PREEMERGENCE
[2] = test system: winter wheat (Triticum aestivum); assay: Test D; details: PREEMERGENCE
[3] = test system: field violet (Viola arvensis); assay: Test D; set-up: key: 0 is no effect; 100 is complete control; details: PREEMERGENCE
[4] = test system: alexandergrass (Brachiaria plantaginea); assay: Test E pre-/postemergence/post directed; set-up: key: 0 is no injury; 100 is complete control; details: PREEMERGENCE
Method in brief: (§1)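 Three application modes in greenhouse pots: preemergence soil spray, postemergence foliar spray at two to four leaves, and post-directed spray to soil and plant base. Ratings of 0–100 injury, assigned visually against untreated controls 13 to 21 days later.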

[5] = test system: green foxtail (Setaria viridis); assay: Test D; set-up: key: 0 is no effect; 100 is complete control; details: PREEMERGENCE
[6] = test system: downy brome (Bromus tectorum); assay: Test D; details: PREEMERGENCE
[7] = test system: ivyleaf speedwell (Veronica hederaefolia); assay: Test D; set-up: key: 0 is no effect; 100 is complete control; details: PREEMERGENCE
[8] = test system: field bindweed (Convolvulus arvensis); assay: Test C; set-up: key: 0 was no effect; 100 was complete control; details: PREEMERGENCE
soybean (Glycine max) = assay: Test C; set-up: key: 0 was no effect; 100 was complete control; details: PREEMERGENCE
[9] = test system: Russian thistle (Salsola kali); assay: Test D; set-up: key: 0 is no effect; 100 is complete control; details: PREEMERGENCE
[10] = test system: lambsquarters (Chenopodium album); assay: Test D; details: PREEMERGENCE
[11] = test system: jointed goatgrass (Aegilops cylindrica); assay: Test D; details: PREEMERGENCE
[12] = test system: winter barley (Hordeum vulgare); assay: Test D; details: PREEMERGENCE
[13] = test system: windgrass (Apera spica-venti); assay: Test D; set-up: key: 0 is no effect; 100 is complete control; details: PREEMERGENCE
[14] = test system: scentless chamomile (Matricaria inodora); assay: Test D; details: PREEMERGENCE
[15] = test system: lambsquarters (Chenopodium album); assay: Test C; set-up: key: 0 was no effect; 100 was complete control; details: PREEMERGENCE
wild oat (Avena fatua) = assay: Test D; details: PREEMERGENCE
[16] = test system: common groundsel (Senecio vulgaris); assay: Test E pre-/postemergence/post directed; set-up: key: 0 is no injury; 100 is complete control; details: PREEMERGENCE, Rate 32 g/ha
Method in brief: as §1

[17] = test system: barnyardgrass (Echinochloa crus-galli); assay: Test E pre-/postemergence/post directed; details: PREEMERGENCE
Method in brief: as §1

Q: Which “Plant response rating, Redroot pigweed” value ([1]; Rate 31 g/ha) does the source give for `CCc1cnc(-n2ccc(C(F)(F)F)n2)nc1Cc1cccc(C(F)(F)F)c1` [Compound 46] here?
A: 70

Q: What about the “Plant response rating, Redroot pigweed” value ([1]; Rate 62 g/ha) of the same compound?
A: 70

Q: What about the “Plant response rating, Corn” value (corn (Zea mays); Rate 35 g/ha) of the same compound?
A: 0

Q: And the “Plant response rating, Corn” value (corn (Zea mays); Rate 70 g/ha)?
A: 0

Q: What about the “Plant response rating, Corn” value (corn (Zea mays); Rate 140 g/ha) of the same compound?
A: 5

Q: What about the “Plant response rating, Wheat (winter)” value ([2]; Rate 31 g/ha) of the same compound?
A: 40

Q: What about the “Plant response rating, Wheat (winter)” value ([2]; Rate 62 g/ha) of the same compound?
A: 2

Q: And the “Plant response rating, Field violet” value ([3]; Rate 31 g/ha)?
A: 85

Q: What about the “Plant response rating, Field violet” value ([3]; Rate 62 g/ha) of the same compound?
A: 100

Q: And the “Plant response rating, Alexandergrass” value ([4]; Rate 32 g/ha)?
A: 0

Q: And the “Plant response rating, Alexandergrass” value ([4]; Rate 64 g/ha)?
A: 0

Q: What about the “Plant response rating, Green foxtail” value ([5]; Rate 31 g/ha) of the same compound?
A: 80

Q: What about the “Plant response rating, Green foxtail” value ([5]; Rate 62 g/ha) of the same compound?
A: 100

Q: What about the “Plant response rating, Downy brome” value ([6]; Rate 31 g/ha) of the same compound?
A: 70

Q: What about the “Plant response rating, Downy brome” value ([6]; Rate 62 g/ha) of the same compound?
A: 70

Q: What about the “Plant response rating, Ivyleaf speedwe” value ([7]; Rate 31 g/ha) of the same compound?
A: 100

Q: And the “Plant response rating, Ivyleaf speedwe” value ([7]; Rate 62 g/ha)?
A: 100

Q: And the “Plant response rating, Field bindweed” value ([8]; Rate 35 g/ha)?
A: 10

Q: What about the “Plant response rating, Field bindweed” value ([8]; Rate 70 g/ha) of the same compound?
A: 70

Q: And the “Plant response rating, Field bindweed” value ([8]; Rate 140 g/ha)?
A: 100

Q: What about the “Plant response rating, Soybean” value (soybean (Glycine max); Rate 35 g/ha) of the same compound?
A: 0

Q: And the “Plant response rating, Soybean” value (soybean (Glycine max); Rate 70 g/ha)?
A: 0

Q: What about the “Plant response rating, Soybean” value (soybean (Glycine max); Rate 140 g/ha) of the same compound?
A: 20

Q: And the “Plant response rating, Russian thistle” value ([9]; Rate 31 g/ha)?
A: 30

Q: And the “Plant response rating, Russian thistle” value ([9]; Rate 62 g/ha)?
A: 30

Q: What about the “Plant response rating, Lambsquarters” value ([10]; Rate 31 g/ha) of the same compound?
A: 65

Q: What about the “Plant response rating, Lambsquarters” value ([10]; Rate 62 g/ha) of the same compound?
A: 70

Q: And the “Plant response rating, Jointed goatgra” value ([11]; Rate 31 g/ha)?
A: 50

Q: And the “Plant response rating, Jointed goatgra” value ([11]; Rate 62 g/ha)?
A: 60

Q: What about the “Plant response rating, Barley (winter)” value ([12]; Rate 31 g/ha) of the same compound?
A: 50

Q: And the “Plant response rating, Barley (winter)” value ([12]; Rate 62 g/ha)?
A: 2

Q: What about the “Plant response rating, Windgrass” value ([13]; Rate 31 g/ha) of the same compound?
A: 40

Q: And the “Plant response rating, Windgrass” value ([13]; Rate 62 g/ha)?
A: 100

Q: What about the “Plant response rating, Scentless chamo” value ([14]; Rate 31 g/ha) of the same compound?
A: 65

Q: And the “Plant response rating, Scentless chamo” value ([14]; Rate 62 g/ha)?
A: 70

Q: What about the “Plant response rating, Lambsquarters” value ([15]; Rate 35 g/ha) of the same compound?
A: 60

Q: What about the “Plant response rating, Lambsquarters” value ([15]; Rate 70 g/ha) of the same compound?
A: 100

Q: What about the “Plant response rating, Lambsquarters” value ([15]; Rate 140 g/ha) of the same compound?
A: 100

Q: What about the “Plant response rating, Wild oat” value (wild oat (Avena fatua); Rate 31 g/ha) of the same compound?
A: 50

Q: What about the “Plant response rating, Wild oat” value (wild oat (Avena fatua); Rate 62 g/ha) of the same compound?
A: 70

Q: What does the source list for `Cc1cnc(-n2cnc(C(F)(F)F)n2)nc1Cn1ccc(C(F)(F)F)n1` [Compound 51]?
A: Plant response rating, Redroot pigweed ([1]; Rate 31 g/ha): 70; Plant response rating, Redroot pigweed ([1]; Rate 62 g/ha): 70; Plant response rating, Wheat (winter) ([2]; Rate 31 g/ha): 30; Plant response rating, Wheat (winter) ([2]; Rate 62 g/ha): 55; Plant response rating, Field violet ([3]; Rate 31 g/ha): 65; Plant response rating, Field violet ([3]; Rate 62 g/ha): 65; Plant response rating, Green foxtail ([5]; Rate 31 g/ha): 100; Plant response rating, Green foxtail ([5]; Rate 62 g/ha): 100; Plant response rating, Downy brome ([6]; Rate 31 g/ha): 80; Plant response rating, Downy brome ([6]; Rate 62 g/ha): 80; Plant response rating, Ivyleaf speedwe ([7]; Rate 31 g/ha): 100; Plant response rating, Ivyleaf speedwe ([7]; Rate 62 g/ha): 100; Plant response rating, Russian thistle ([9]; Rate 31 g/ha): 60; Plant response rating, Russian thistle ([9]; Rate 62 g/ha): 70; Plant response rating, Lambsquarters ([10]; Rate 31 g/ha): 70; Plant response rating, Lambsquarters ([10]; Rate 62 g/ha): 70; Plant response rating, Jointed goatgra ([11]; Rate 31 g/ha): 60; Plant response rating, Jointed goatgra ([11]; Rate 62 g/ha): 90; Plant response rating, Barley (winter) ([12]; Rate 31 g/ha): 50; Plant response rating, Barley (winter) ([12]; Rate 62 g/ha): 90; Plant response rating, Windgrass ([13]; Rate 31 g/ha): 100; Plant response rating, Windgrass ([13]; Rate 62 g/ha): 100; Plant response rating, Scentless chamo ([14]; Rate 31 g/ha): 65; Plant response rating, Scentless chamo ([14]; Rate 62 g/ha): 70; Plant response rating, Wild oat (wild oat (Avena fatua); Rate 31 g/ha): 80; Plant response rating, Wild oat (wild oat (Avena fatua); Rate 62 g/ha): 95

Q: How did the “Plant response rating, Com. groundsel” value [16] turn out when `Cc1cnc(-n2cnc(C(F)(F)F)n2)nc1C(=O)c1cccc(C(F)(F)F)c1` [Compound 67] was run?
A: 0

Q: What does the source list for `Cc1cnc(-c2ccc(C(F)(F)F)cc2)nc1Cc1cccc(C(F)(F)F)c1` [Example 1, 5-methyl-2-[4-(trifluoromethyl)phenyl]-4-[[3-(trifluoromethyl)phenyl]methyl]pyrimidine]?
A: Plant response rating, Redroot pigweed ([1]; Rate 31 g/ha): 75; Plant response rating, Redroot pigweed ([1]; Rate 62 g/ha): 70; Plant response rating, Redroot pigweed ([1]; Rate 125 g/ha): 75; Plant response rating, Redroot pigweed ([1]; Rate 250 g/ha): 70; Plant response rating, Corn (corn (Zea mays); Rate 35 g/ha): 5; Plant response rating, Corn (corn (Zea mays); Rate 70 g/ha): 10; Plant response rating, Corn (corn (Zea mays); Rate 140 g/ha): 10; Plant response rating, Wheat (winter) ([2]; Rate 31 g/ha): 10; Plant response rating, Wheat (winter) ([2]; Rate 62 g/ha): 10; Plant response rating, Wheat (winter) ([2]; Rate 125 g/ha): 20; Plant response rating, Wheat (winter) ([2]; Rate 250 g/ha): 40; Plant response rating, Field violet ([3]; Rate 31 g/ha): 20; Plant response rating, Field violet ([3]; Rate 62 g/ha): 70; Plant response rating, Field violet ([3]; Rate 125 g/ha): 85; Plant response rating, Field violet ([3]; Rate 250 g/ha): 85; Plant response rating, Green foxtail ([5]; Rate 31 g/ha): 60; Plant response rating, Green foxtail ([5]; Rate 62 g/ha): 100; Plant response rating, Green foxtail ([5]; Rate 125 g/ha): 100; Plant response rating, Green foxtail ([5]; Rate 250 g/ha): 100; Plant response rating, Downy brome ([6]; Rate 31 g/ha): 30; Plant response rating, Downy brome ([6]; Rate 62 g/ha): 50; Plant response rating, Downy brome ([6]; Rate 125 g/ha): 60; Plant response rating, Ivyleaf speedwe ([7]; Rate 31 g/ha): 50; Plant response rating, Ivyleaf speedwe ([7]; Rate 62 g/ha): 100; Plant response rating, Ivyleaf speedwe ([7]; Rate 125 g/ha): 100; Plant response rating, Ivyleaf speedwe ([7]; Rate 250 g/ha): 100; Plant response rating, Field bindweed ([8]; Rate 35 g/ha): 65; Plant response rating, Field bindweed ([8]; Rate 70 g/ha): 50; Plant response rating, Field bindweed ([8]; Rate 140 g/ha): 50; Plant response rating, Barnyardgrass ([17]; Rate 32 g/ha): 5; Plant response rating, Barnyardgrass ([17]; Rate 64 g/ha): 70; Plant response rating, Barnyardgrass ([17]; Rate 125 g/ha): 80; Plant response rating, Soybean (soybean (Glycine max); Rate 35 g/ha): 0; Plant response rating, Soybean (soybean (Glycine max); Rate 70 g/ha): 0; Plant response rating, Soybean (soybean (Glycine max); Rate 140 g/ha): 0; Plant response rating, Russian thistle ([9]; Rate 31 g/ha): 10; Plant response rating, Russian thistle ([9]; Rate 62 g/ha): 100; Plant response rating, Russian thistle ([9]; Rate 250 g/ha): 100; Plant response rating, Lambsquarters ([10]; Rate 31 g/ha): 10; Plant response rating, Lambsquarters ([10]; Rate 62 g/ha): 70; Plant response rating, Lambsquarters ([10]; Rate 125 g/ha): 70; Plant response rating, Lambsquarters ([10]; Rate 250 g/ha): 70; Plant response rating, Jointed goatgra ([11]; Rate 31 g/ha): 10; Plant response rating, Jointed goatgra ([11]; Rate 62 g/ha): 20; Plant response rating, Jointed goatgra ([11]; Rate 125 g/ha): 70; Plant response rating, Jointed goatgra ([11]; Rate 250 g/ha): 50; Plant response rating, Barley (winter) ([12]; Rate 31 g/ha): 10; Plant response rating, Barley (winter) ([12]; Rate 62 g/ha): 20; Plant response rating, Barley (winter) ([12]; Rate 125 g/ha): 30; Plant response rating, Barley (winter) ([12]; Rate 250 g/ha): 40; Plant response rating, Windgrass ([13]; Rate 31 g/ha): 60; Plant response rating, Windgrass ([13]; Rate 62 g/ha): 100; Plant response rating, Windgrass ([13]; Rate 125 g/ha): 100; Plant response rating, Windgrass ([13]; Rate 250 g/ha): 100; Plant response rating, Scentless chamo ([14]; Rate 31 g/ha): 30; Plant response rating, Scentless chamo ([14]; Rate 62 g/ha): 70; Plant response rating, Scentless chamo ([14]; Rate 125 g/ha): 75; Plant response rating, Scentless chamo ([14]; Rate 250 g/ha): 85; Plant response rating, Lambsquarters ([15]; Rate 35 g/ha): 100; Plant response rating, Lambsquarters ([15]; Rate 70 g/ha): 100; Plant response rating, Lambsquarters ([15]; Rate 140 g/ha): 100; Plant response rating, Wild oat (wild oat (Avena fatua); Rate 31 g/ha): 20; Plant response rating, Wild oat (wild oat (Avena fatua); Rate 62 g/ha): 60; Plant response rating, Wild oat (wild oat (Avena fatua); Rate 125 g/ha): 60; Plant response rating, Wild oat (wild oat (Avena fatua); Rate 250 g/ha): 90
